# In patent publication US6914045B2, “Glycopeptide antibiotics” (Wyeth Holdings Corporation, priority 2001, dated 2005):
# Assays:
# [1] = clinical pathology (serum clinical chemistry) in mice; type: in vivo; settings: CD-1 mice, 20 mg/kg intravenously daily for 9 days, sera day 10
# Procedure: 20-day-old CD-1 mice were divided into a vehicle control group (5 mice) and a treatment group (5 mice). Samples of glycopeptide antibiotics were administered at 20 mg/kg intravenously daily for 9 days.
# [2] = anatomic pathology (histopathology of heart and kidney) in mice; type: in vivo; settings: CD-1 mice, 20 mg/kg intravenously daily for 9 days, necropsy day 10, microscopic histopathology
# Procedure: Samples of tissues from necropsied mice were formalin-fixed, paraffin-embedded, sectioned, stained with hematoxylin and eosin, and examined microscopically. Histopathologic findings were recorded. These findings were subjectively graded on a scale corresponding to slight, mild, moderate, marked and severe as compared to untreated controls.
# Escherichia coli = assay: in vitro antibacterial evaluation, MIC by broth dilution; type: cell-based; settings: 18 hours at 35° C.
# Enterococcus sp. = assay: as above; type: cell-based; settings: broth dilution, 18 hours at 35° C.
# Summary of the method: (§1)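 Following National Committee for Clinical Laboratory Standards recommendations (M7-A2), susceptibility was measured by dilution in Muller-Hinton II […]. Bacteria were seeded at 5×10^5 CFU/mL against compound concentrations from 64 down to 0.06 μg/mL.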
# Streptococcus sp. = assay: as above; type: cell-based; settings: broth dilution, 18 hours at 35° C.
# Summary of the method: as §1
# Staphylococcus sp. = assay: as above; type: cell-based; settings: broth dilution, 18 hours at 35° C.
# Summary of the method: as §1
# [3] = test system: Staphylococcus aureus-SMITH (GC 4543); assay: acute lethal infection in mice; type: in vivo; settings: acute lethal infection, female CD-1 mice, intraperitoneal challenge, intravenous 30 min. after infection, 7 day survival
# Summary of the method: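 ED50 from 7 day survival ratios pooled over 3 separate tests. Female CD-1 mice, 20+/−2 gm, ip bacterial challenge (trypticase soy broth or hog gastric mucin) lethal to untreated controls in 24-48 hr; iv dosing 30 min after infection in saline or 5% dextrose, n=5/dose.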
structure (smiles),measurement,setting,value
"COc1ccc2cc(COCC3OC(OC4C(CO)OC(Oc5ccc(CC6NC(=O)C(C(C)c7ccccc7)NC(=O)CNC(=O)C(CO)NC(=O)C(C(O)C7CNC(=N)N7C7OC(CO)C(O)C(O)C7O)NC(=O)C(C(O)C7CNC(=N)N7)NC6=O)cc5)C(O)C4O)C(O)C(O)C3O)ccc2c1 (stereo not drawn) [Example 230, Cyclo[glycyl-β-methylphenylalanyl-O-[4-O-[6-O-[(6-methoxy-2-naphthyl)methyl]hexopyranosyl]hexopyranosyl]tyrosyl-3-(2-iminoimidazolidin-4-yl)seryl-3-(3-hexopyranosyl-2-iminoimidazolidin-4-yl)serylseryl]]","Clinical Chemistry (Day 10) % of Control, BUN",[1],+179%
same,"Clinical Chemistry (Day 10) % of Control, Creatinine",[1],+124%
same,"Anatomical Pathology (Day 10), Heart",[2],0
same,"Anatomical Pathology (Day 10), Kidney",[2],+++
same,MIC Escherichia coli (ATCC 25922),Escherichia coli,64 µg/mL
same,MIC Escherichia coli (GC 4559),Escherichia coli,>64 µg/mL
same,MIC Escherichia coli (GC 4560),Escherichia coli,1 µg/mL
same,MIC Enterococcus avium (GC 4558),Enterococcus sp.,8 µg/mL
same,MIC Enterococcus faecalis (ATCC 29212),Enterococcus sp.,8 µg/mL
same,MIC Enterococcus faecalis (GC 2242),Enterococcus sp.,8 µg/mL
same,MIC Enterococcus faecalis (GC 2691),Enterococcus sp.,4 µg/mL
same,MIC Enterococcus faecalis (GC 3059),Enterococcus sp.,8 µg/mL
same,MIC Enterococcus faecalis (GC 4552),Enterococcus sp.,8 µg/mL
same,MIC Enterococcus faecalis (GC 4553),Enterococcus sp.,8 µg/mL
same,MIC Enterococcus faecalis (GC 4554),Enterococcus sp.,8 µg/mL
same,MIC Enterococcus faecalis (GC 6189),Enterococcus sp.,4 µg/mL
same,MIC Enterococcus faecium (GC 2243),Enterococcus sp.,8 µg/mL
same,MIC Enterococcus faecium (GC 4556),Enterococcus sp.,8 µg/mL
same,MIC Enterococcus faecium (GC 4557),Enterococcus sp.,2 µg/mL
same,MIC Enterococcus faecalis (ATCC 29212),"Enterococcus sp.; inoculum 5×10^5 CFU/mL, strain ATCC 29212",8 µg/mL
same,MIC Enterococcus faecalis (GC 2242),"Enterococcus sp.; inoculum 5×10^5 CFU/mL, strain GC 2242",8 µg/mL
same,MIC Enterococcus faecium (GC 2243),"Enterococcus sp.; inoculum 5×10^5 CFU/mL, strain GC 2243",8 µg/mL
same,MIC Enterococcus faecalis (GC 2691),"Enterococcus sp.; inoculum 5×10^5 CFU/mL, strain GC 2691",4 µg/mL
same,MIC Enterococcus faecalis (GC 3059),"Enterococcus sp.; inoculum 5×10^5 CFU/mL, strain GC 3059",8 µg/mL
same,MIC Enterococcus faecalis (GC 4552),"Enterococcus sp.; inoculum 5×10^5 CFU/mL, strain GC 4552",8 µg/mL
same,MIC Enterococcus faecalis (GC 4553),"Enterococcus sp.; inoculum 5×10^5 CFU/mL, strain GC 4553",8 µg/mL
same,MIC Enterococcus faecalis (GC 4554),"Enterococcus sp.; inoculum 5×10^5 CFU/mL, strain GC 4554",8 µg/mL
same,MIC Enterococcus faecium (GC 4556),"Enterococcus sp.; inoculum 5×10^5 CFU/mL, strain GC 4556",8 µg/mL
same,MIC Enterococcus faecium (GC 4557),"Enterococcus sp.; inoculum 5×10^5 CFU/mL, strain GC 4557",2 µg/mL
same,MIC Enterococcus avium (GC 4558),"Enterococcus sp.; inoculum 5×10^5 CFU/mL, strain GC 4558",8 µg/mL
same,MIC Enterococcus faecalis (GC 6189),"Enterococcus sp.; inoculum 5×10^5 CFU/mL, strain GC 6189",4 µg/mL
same,MIC Streptococcus agalactiae (GC 4564),Streptococcus sp.,0.5 µg/mL
same,MIC Streptococcus pneumoniae (ATCC 6301),Streptococcus sp.,0.12 µg/mL
same,MIC Streptococcus pneumoniae (GC 1894),Streptococcus sp.,<0.06 µg/mL
same,MIC Streptococcus pneumoniae (GC 4565),Streptococcus sp.,0.12 µg/mL
same,MIC Streptococcus pyogenes (GC 4563),Streptococcus sp.,0.25 µg/mL
same,MIC Streptococcus pneumoniae (ATCC 6301),"Streptococcus sp.; inoculum 5×10^5 CFU/mL, strain ATCC 6301",0.12 µg/mL
same,MIC Streptococcus pneumoniae (GC 1894),"Streptococcus sp.; inoculum 5×10^5 CFU/mL, strain GC 1894",<0.06 µg/mL
same,MIC Streptococcus pyogenes (GC 4563),"Streptococcus sp.; inoculum 5×10^5 CFU/mL, strain GC 4563",0.25 µg/mL
same,MIC Streptococcus agalactiae (GC 4564),"Streptococcus sp.; inoculum 5×10^5 CFU/mL, strain GC 4564",0.5 µg/mL
same,MIC Streptococcus pneumoniae (GC 4565),"Streptococcus sp.; inoculum 5×10^5 CFU/mL, strain GC 4565",0.12 µg/mL
same,MIC Coagulase Negative Staphylococcus (GC 4547),Staphylococcus sp.,1 µg/mL
same,MIC Coagulase Negative Staphylococcus (GC 4548),Staphylococcus sp.,0.5 µg/mL
same,MIC Coagulase Negative Staphylococcus (GC 4549),Staphylococcus sp.,1 µg/mL
same,MIC Coagulase Negative Staphylococcus (GC 4551),Staphylococcus sp.,2 µg/mL
same,MIC Coagulase Negative Staphylococcus (GC 6257),Staphylococcus sp.,0.5 µg/mL
same,MIC Staphylococcus aureus (ATCC 29213),Staphylococcus sp.,2 µg/mL
same,MIC Staphylococcus aureus (GC 1131),Staphylococcus sp.,2 µg/mL
same,MIC Staphylococcus aureus (GC 3051),Staphylococcus sp.,2 µg/mL
same,MIC Staphylococcus aureus (GC 3053),Staphylococcus sp.,2 µg/mL
same,MIC Staphylococcus aureus (GC 4541),Staphylococcus sp.,1 µg/mL
same,MIC Staphylococcus aureus (GC 4542),Staphylococcus sp.,2 µg/mL
same,MIC Staphylococcus aureus (GC 4544),Staphylococcus sp.,2 µg/mL
same,MIC Staphylococcus aureus (GC 4545),Staphylococcus sp.,1 µg/mL
same,MIC Staphylococcus aureus-SMITH (GC 4543),Staphylococcus sp.,1 µg/mL
same,MIC Staphylococcus haemolyticus (GC 4546),Staphylococcus sp.,1 µg/mL
same,MIC Staphylococcus aureus (ATCC 29213),Staphylococcus sp.; strain ATCC 29213,2 µg/mL
same,MIC Staphylococcus aureus (GC 1131),Staphylococcus sp.; strain GC 1131,2 µg/mL
same,MIC Staphylococcus aureus (GC 3051),Staphylococcus sp.; strain GC 3051,2 µg/mL
same,MIC Staphylococcus aureus (GC 3053),Staphylococcus sp.; strain GC 3053,2 µg/mL
same,MIC Staphylococcus aureus (GC 4541),Staphylococcus sp.; strain GC 4541,1 µg/mL
same,MIC Staphylococcus aureus (GC 4542),Staphylococcus sp.; strain GC 4542,2 µg/mL
same,MIC Staphylococcus aureus-SMITH (GC 4543),Staphylococcus sp.; strain GC 4543,1 µg/mL
same,MIC Staphylococcus aureus (GC 4544),Staphylococcus sp.; strain GC 4544,2 µg/mL
same,MIC Staphylococcus aureus (GC 4545),Staphylococcus sp.; strain GC 4545,1 µg/mL
same,MIC Staphylococcus haemolyticus (GC 4546),Staphylococcus sp.; strain GC 4546,1 µg/mL
same,MIC Coagulase Negative Staphylococcus (GC 4547),Staphylococcus sp.; strain GC 4547,1 µg/mL
same,MIC Coagulase Negative Staphylococcus (GC 4548),Staphylococcus sp.; strain GC 4548,0.5 µg/mL
same,MIC Coagulase Negative Staphylococcus (GC 4549),Staphylococcus sp.; strain GC 4549,1 µg/mL
same,MIC Coagulase Negative Staphylococcus (GC 4551),Staphylococcus sp.; strain GC 4551,2 µg/mL
same,MIC Coagulase Negative Staphylococcus (GC 6257),Staphylococcus sp.; strain GC 6257,0.5 µg/mL
same,"median effective dose (ED50), Staphylococcus aureus-SMITH (GC 4543)",[3],0.12 mg/kg
